“Also recorded” adds a separate entry of the source.
Key:
Type in all cases: in vivo, human
[1] = Study 3201: serum urate in patients with acute manic episodes associated with bipolar I disorder, by SLC2A9 rs7442295 genotype and sex; conditions: for LS Mean Change (SE) in serum urate from baseline: 24 mg/day oral (12 mg bid)
Description: (§1) A multi-center, randomized, double-blind, placebo-controlled study is performed to evaluate the safety and efficacy of iloperidone for four (4) weeks in the treatment of patients with acute manic episodes associated with bipolar I disorder (“Study 3201”). Patients in the study are randomized to orally receive either iloperidone at a dose of 24 mg/day given in a divided dose as 12 mg twice daily (bid), or matched placebo.
These increases are illustrated in FIG. 1 using solid data points.
To test the hypothesis of altered urate serum levels in association with variants in the SLC2A9 gene, whole genome sequencing is conducted from blood samples, genotype status is obtained through standard data analysis, and linear models for SLC2A9 variants are performed on urate concentration in samples collected at baseline (corrected for PCs, age, sex) and samples collected at the end of the study (EOS).
As shown in FIGS. 3-4, the rs7442295 variant of interest has a statistically significant effect on iloperidone-induced change in serum urate levels from baseline to Day 28 in patients with bipolar disorder. FIG. 3 illustrates individual patient changes in serum urate (in μmol/L) from baseline to Day 28, grouped according to treatment group (iloperiodone or placebo) and carrier status for variant rs7442295, while FIG. 4 illustrates mean serum levels for at patient evaluations conducted at baseline and Day 28, separated according to treatment group (iloperidone or placebo) and patient carrier status for rs7442295. The significant interaction affecting change is particularly observed between genotype*sex*treatment (full model: Multiple R-squared: 0.09251, Adjusted R-squared: 0.07078, F-statistic: 4.256 on 8 and 334 DF, p=0.00006942).
This observation is statistically significant when comparing genotypes at BOS as well as when comparing GG with AG and AA genotypes between treatment and placebo group in both males and females combined. Table 2 (below) provides mean change from baseline to Day 28 by treatment group and carrier status for variant rs7442295, and Table 3 (below) provides LS mean change in serum urate from baseline to Day 28 evaluations for serum urate by treatment group and carrier status for variant rs7442295) (SD=standard deviation).

[2] = Study 3101: serum urate (uric acid) in subjects with acute schizophrenia, by SLC2A9 rs7442295 genotype
Description: (§2) A study is performed to evaluate the efficacy and safety of iloperidone compared with placebo and active control (ziprasidone) in subjects with acute schizophrenia (“Study 3101”). Patients are randomized to receive one of iloperidone at a dose of 24 mg/day given in a divided dose as 12 mg twice daily (bid), active comparator ziprasidone, or placebo. […] Uric acid results are converted to SI units using the conversion 1 mg/dL=59.5 μmol/L.
Results are provided in Table 6 below, including an increase of 28.0 μmol/L for iloperidone compared to a decrease of 4.2 μmol/L in placebo groups.
Patient genotypes are obtained via a commercial 500k SNP Gene Chip Human Mapping Array. To test the hypothesis of altered urate serum levels in association with variants in SLC2A9, linear models for SLC2A9 variants are performed on urate at baseline levels (corrected for PCs, age, sex) followed by samples collected at end of study (EOS).

[3] = Studies 3201 and 3101 (Examples 1 and 2), conclusions on serum urate
Description: as §1, §2

Q: Which “Percentage of patients with serum urate above ULN” value ([1]; Baseline, female, genotype AA (4/42), ULN 394 μmol/l) does the source give for `COc1cc(C(C)=O)ccc1OCCCN1CCC(c2noc3cc(F)ccc23)CC1` [Iloperidone, 1-[4-[3-[4-(6-flouro-1,2-benzisoxazol-3-yl)-1-piperidinyl]propoxy]-3-methoxyphenyl]ethanone] here?
A: 9.5%

Q: What about the “Percentage of patients with serum urate above ULN” value ([1]; Baseline, female, genotype AG (3/39), ULN 394 μmol/l) of the same compound?
A: 7.7%

Q: And the “Percentage of patients with serum urate above ULN” value ([1]; Baseline, female, genotype GG (0/7), ULN 394 μmol/l)?
A: 0.0%

Q: What about the “Serum urate at baseline (SE)” value ([1]; Baseline, iloperidone group, bipolar mania, n=206) of the same compound?
A: 323.0 (77.13), 206 μmol/L

Q: And the “Percentage of patients with serum urate above ULN” value ([1]; Baseline, male, genotype AA (6/60), ULN 453 μmol/l)?
A: 10.0%

Q: And the “Percentage of patients with serum urate above ULN” value ([1]; Baseline, male, genotype AG (1/41), ULN 453 μmol/l)?
A: 2.4%

Q: And the “Percentage of patients with serum urate above ULN” value ([1]; Baseline, male, genotype GG (1/12), ULN 453 μmol/l)?
A: 8.3%

Q: And the “Percentage of patients with serum urate above ULN” value ([1]; Baseline, male, genotype GG (1/12), ULN 453 μmol/l, listed as iloperidone)?
A: about 8.3%

Q: And the “LS Mean Difference (95% CI) in serum urate change vs placebo” value ([1]; Day 7, bipolar mania)?
A: 1.3 (−9.29, 11.88) μmol/L

Q: What about the “LS Mean Change (SE) in serum urate from baseline” value (from here on “LS Mean Change (SE)”) ([1]; Day 7, bipolar mania, n=199) of the same compound?
A: −2.7 (−4.07), 199 μmol/L

Q: And the “LS Mean Difference (95% CI) in serum urate change vs placebo” value ([1]; Day 14, bipolar mania)?
A: 15.3 (4.50, 26.15) μmol/L

Q: And the “LS Mean Change (SE)” value ([1]; Day 14, bipolar mania, n=173)?
A: 12.6 (−4.28), 173 μmol/L

Q: And the “LS Mean Difference (95% CI) in serum urate change vs placebo” value ([1]; Day 21, bipolar mania)?
A: 21.0 (8.91, 33.18) μmol/L

Q: And the “LS Mean Change (SE)” value ([1]; Day 21, bipolar mania, n=157)?
A: 19.1 (−5.24), 157 μmol/L

Q: And the “LS Mean Change (SE)” value ([1]; Day 28 (endpoint), bipolar mania, n=142)?
A: 27.2 (−4.93), 142 μmol/L

Q: What about the “LS Mean Change (SE)” value ([1]; Day 28 (endpoint), bipolar mania, n=142, listed as iloperidone) of the same compound?
A: 27.2 µmol/L

Q: And the “Fold greater increase in serum urate from baseline compared to placebo” value ([1]; Day 28, bipolar mania)?
A: 4 fold

Q: What about the “LS Mean Difference (95% CI) in serum urate change vs placebo” value ([1]; Day 28, bipolar mania) of the same compound?
A: 27.1 (14.94, 39.20) μmol/L

Q: What about the “LS Mean Difference (95% CI) in serum urate change vs placebo” value ([1]; Day 28, genotype AA, female) of the same compound?
A: 27.85 (2.93, 52.76) μmol/L

Q: What about the “LS Mean Difference (95% CI) in serum urate change vs placebo” value ([1]; Day 28, genotype AA, male) of the same compound?
A: 35.52 (12.82, 58.22) μmol/L

Q: What about the “LS Mean Difference in serum urate change vs placebo” value ([1]; Day 28, genotype AA, 95% CI (14.82, 49)) of the same compound?
A: 31.91 µmol/L

Q: What about the “LS Mean Difference (95% CI) in serum urate change vs placebo” value ([1]; Day 28, genotype AG, female) of the same compound?
A: −7.9 (−34.82, 19.03) μmol/L

Q: What about the “LS Mean Difference (95% CI) in serum urate change vs placebo” value ([1]; Day 28, genotype AG, male) of the same compound?
A: 40.79 (14.61, 66.96) μmol/L

Q: What about the “LS Mean Difference in serum urate change vs placebo” value ([1]; Day 28, genotype AG, 95% CI (−4.18, 33.86)) of the same compound?
A: 14.84 µmol/L

Q: And the “LS Mean Difference (95% CI) in serum urate change vs placebo” value ([1]; Day 28, genotype GG, female)?
A: 3.08 (−50.97, 57.13) μmol/L

Q: What about the “LS Mean Difference (95% CI) in serum urate change vs placebo” value ([1]; Day 28, genotype GG, male) of the same compound?
A: 102.96 (48.93, 156.99) μmol/L

Q: And the “LS Mean Difference in serum urate change vs placebo” value ([1]; Day 28, genotype GG, 95% CI (18.91, 94.99))?
A: 56.95 µmol/L

Q: And the “Mean change from baseline in serum urate” value ([1]; Day 28, 24 mg/day, all genotypes, bipolar mania)?
A: 33.4 µmol/L

Q: What about the “LS Mean Difference (95% CI) in serum urate change vs placebo” value ([1]; EOS (LOCF), genotype AA, female) of the same compound?
A: 15.97 (−6.71, 38.64) μmol/L

Q: What about the “LS Mean Difference (95% CI) in serum urate change vs placebo” value ([1]; EOS (LOCF), genotype AA, male) of the same compound?
A: 18.99 (−0.89, 38.86) μmol/L

Q: What about the “LS Mean Difference (95% CI) in serum urate change vs placebo” value ([1]; EOS (LOCF), genotype AG, female) of the same compound?
A: −1.4 (−25.85, 23.06) μmol/L

Q: And the “LS Mean Difference (95% CI) in serum urate change vs placebo” value ([1]; EOS (LOCF), genotype AG, male)?
A: 19.58 (−2.91, 42.08) μmol/L

Q: What about the “LS Mean Difference (95% CI) in serum urate change vs placebo” value ([1]; EOS (LOCF), genotype GG, female) of the same compound?
A: 4.54 (−50.43, 59.52) μmol/L

Q: What about the “LS Mean Difference (95% CI) in serum urate change vs placebo” value ([1]; EOS (LOCF), genotype GG, male) of the same compound?
A: 88.45 (38.7, 138.21) μmol/L

Q: What about the “LS Mean Difference in serum urate change vs placebo” value ([1]; EOS, genotype AA, 95% CI (3.19, 33.28)) of the same compound?
A: 18.23 µmol/L

Q: What about the “LS Mean Difference in serum urate change vs placebo” value ([1]; EOS, genotype AG, 95% CI (−8.27, 25.48)) of the same compound?
A: 8.61 µmol/L

Q: And the “LS Mean Difference in serum urate change vs placebo” value ([1]; EOS, genotype GG, 95% CI (18.68, 92.13))?
A: 55.4 µmol/L

Q: What about the “Effect on serum urate (in words)” value ([1]; bipolar mania, vs placebo) of the same compound?
A: statistically significant increase in serum urate; also recorded: associated with increases in serum urate compared to placebo

Q: What about the “Iloperidone-associated increase in serum urate in rs7442295-G/G individuals (in words)” value ([1]; genotype GG, bipolar mania) of the same compound?
A: significant in individuals who are homozygous for the rs7442295 (G) allele

Q: And the “Increase in serum urate in G/G patients (in words)” value ([1]; genotype GG, bipolar mania)?
A: nearly twice as large

Q: And the “Serum urate relative to ULN in G/G individuals treated with iloperidone (in words)” value ([1]; genotype GG, especially males, ULN 453 (male), 394 (female) μmol/l)?
A: a significant number of individuals (particularly homozygous G/G males) exceed the upper limit of normal (ULN); also recorded: above ULN value in individuals that are homozygous (GG) for the rs7442295 (G) allele

Q: What about the “Fold increase in percentage of patients with high urate levels (above ULN)” value ([1]; male, genotype GG, baseline to end of study) of the same compound?
A: approximately 4 fold

Q: And the “Serum urate at Day 0 (SE)” value ([2]; Day 0, iloperidone group, schizophrenia, n=300)?
A: 318.3 (73.19), 300 μmol/L

Q: What about the “LS Mean Difference (95% CI) in serum urate change vs placebo” value ([2]; Day 14, schizophrenia) of the same compound?
A: 18.4 (6.55. 29.93) μmol/L

Q: And the “LS Mean Change (SE)” value ([2]; Day 14, 24 mg/day (12 mg bid), schizophrenia, n=276)?
A: 15.5 (58.85), 276 μmol/L

Q: What about the “LS Mean Difference (95% CI) in serum urate change vs placebo” value ([2]; Day 28, genotype AA) of the same compound?
A: 10.05 (14.90, 35.97) μmol/L

Q: What about the “LS Mean Difference (95% CI) in serum urate change vs placebo” value ([2]; Day 28, genotype AG) of the same compound?
A: 30.02 (−2.86, 57.63) μmol/L

Q: And the “LS Mean Difference (95% CI) in serum urate change vs placebo” value ([2]; Day 28, genotype GG)?
A: 52.4 (0.33, 104.45) μmol/L

Q: And the “Change from baseline in uric acid relative to ziprasidone arm (in words)” value ([2]; Day 28, schizophrenia)?
A: more than twice the change from baseline observed in the ziprasidone arm

Q: What about the “Fold greater increase from baseline in blood uric acid compared to placebo” value ([2]; Day 28, schizophrenia) of the same compound?
A: roughly 4 fold

Q: And the “LS Mean Difference (95% CI) in serum urate change vs placebo” value ([2]; Day 28, schizophrenia)?
A: 23.8 (9.16. 37.96) μmol/L

Q: And the “LS Mean Change (SE)” value ([2]; Day 28, iloperidone 24 mg/day (12 mg bid), schizophrenia, n=206)?
A: 28.0 (4.05), 206 μmol/L

Q: And the “LS Mean Change (SE)” value ([2]; Day 28, iloperidone 24 mg/day (12 mg bid), schizophrenia, n=206, listed as iloperidone)?
A: 28.0 µmol/L

Q: What about the “Iloperidone-induced change in serum urate with GG genotype, by sex (in words)” value ([2]; genotype GG, male schizophrenia patients) of the same compound?
A: particular pronounced in male schizophrenia patients

Q: What about the “Effect on serum urate compared to placebo (in words)” value ([2]; schizophrenia, ANCOVA) of the same compound?
A: statistically significant increase in serum urate

Q: What about the “Effect on serum urate compared to placebo (in words)” value ([3]; bipolar disorder and schizophrenia) of the same compound?
A: associated with increases in serum urate compared to placebo

Q: And the “Increase in serum urate in G/G patients (in words)” value ([3]; genotype G/G, both studies)?
A: nearly twice as large

Q: Which “LS mean change from baseline to endpoint in serum urate” value ([2]; ziprasidone active comparator arm, schizophrenia) does the source give for `O=C1Cc2cc(CCN3CCN(c4nsc5ccccc45)CC3)c(Cl)cc2N1` [ziprasidone] here?
A: 13.1 µmol/L

Q: What about the “Increase in serum urate relative to iloperidone (in words)” value ([2]; ziprasidone arm, schizophrenia) of the same compound?
A: approximately half of that seen in with iloperidone treatment
